Target: T1, hM4 receptor (Homo sapiens, UniProt P08173)
T1 construct: host or cells: CHO-K1, additionally stably transfected with Gqi5
T1 sequence (P08173 1-479): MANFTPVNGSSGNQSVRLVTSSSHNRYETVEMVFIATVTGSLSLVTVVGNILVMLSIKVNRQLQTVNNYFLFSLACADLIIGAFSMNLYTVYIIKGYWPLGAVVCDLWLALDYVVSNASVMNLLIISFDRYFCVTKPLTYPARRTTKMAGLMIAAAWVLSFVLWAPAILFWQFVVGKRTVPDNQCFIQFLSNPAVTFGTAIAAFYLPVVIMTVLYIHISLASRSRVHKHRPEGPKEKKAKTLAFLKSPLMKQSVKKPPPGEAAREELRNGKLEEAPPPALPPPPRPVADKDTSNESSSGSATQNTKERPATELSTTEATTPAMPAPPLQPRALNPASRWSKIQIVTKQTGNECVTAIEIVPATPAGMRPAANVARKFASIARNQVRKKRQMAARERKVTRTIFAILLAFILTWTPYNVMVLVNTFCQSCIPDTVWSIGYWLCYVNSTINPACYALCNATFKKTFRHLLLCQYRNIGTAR
Assay: Calcium mobilization assay, CHO-K1 cells stably expressing hM4-Gqi5
Format: cell-based
Description: Chinese hamster ovary (CHO-K1) cells stably expressing rat (r)M1 were purchased from the American Type Culture Collection and cultured according to their indicated protocol. CHO cells stably expressing human (h)M2, hM3, and hM5 were described previously (Levey et al., 1991); hM1 and hM4 cDNAs were purchased from Missouri S&T cDNA Resource; rM4 cDNA was provided by T. I. Bonner (National Institutes of Health, Bethesda, Md.). hM1, hM4, and rM4 cDNAs were used to stably transfect CHO-K1 cells purchased from the American Type Culture Collection using Lipofectamine2000. […]
For low throughput measurement of agonist-evoked increases in intracellular calcium, CHO-K1 cells stably expressing muscarinic receptors were plated in 100 μL of growth medium at 5×10^4 (rM1, hM3, and hM5) or 6×10^4 cells per well (rM1 Y381A, hM2, and rM4) in Costar 96-well black-walled, tissue culture (TC)-treated, clear-bottom plates (Fisher). […] For calcium fluorescence measurements, CRCs of compounds (50 μl, 2×) were added 19 s after the beginning of data collection via a Flexstation II (Molecular Devices, Sunnyvale, Calif.). Fluorescence imaging continued for a total of 130 s acquisition time using an excitation wavelength of 488 nm, an emission wavelength of 525 nm, and a cutoff wavelength of 515 nm. […]

CCOC(=O)N1[C@@H]2CC[C@H]1C[C@H](NCCNC(=O)c1ccccc1)C2 [Example 26, ethyl 3-((3-exo)-(2-benzamidoethyl)amino)-8-azabicyclo[3.2.1]octane-8-carboxylate]
EC50: > 10 µM

CCOC(=O)N1[C@@H]2CC[C@H]1C[C@@H](NCCNC(=O)c1ccccc1)C2 [Example 27, ethyl 3-((3-endo)-(2-benzamidoethyl)amino)-8-azabicyclo[3.2.1]octane-8-carboxylate]
EC50: ~3 µM
